In patent US9353141B2, “Galectoside inhibitors of galectins” (GALECTO BIOTECH AB, priority 2012, dated 2016):
One block for each molecule: values may come before it.

Legend:
[1] = target: galectin-9 (N-terminal domain) (Homo sapiens, UniProt O00182); assay: Fluorescence polarization-based galectin inhibition assay; type: binding; settings: 20° C., read-out: Calculated Kd Galectin 9 (N-terminal domain)
Excerpt: (§1) Identification of the substances was made by HRMS (Micromass Q-tof micro) and NMR (Bruker Ultrashield 400 plus, 400 MHz). Chemical shifts are reported downfield from Me4Si using residual […] (7.26 ppm) or CHD2OD (3.35 ppm) as reference. Chemical shifts and coupling constants were obtained from ^1H-NMR and proton resonances were assigned from COSY experiments. Purification was made by RF-HPLC (Beckman, system gold) or flash chromatography, using silica gel (Davisil 35-70 μm, 60 Å). Reactions were followed by TLC (Aluminum sheet, silica gel 60 F254) visualized with UV light, H2SO4 (aq) or an iso-vanillin/H2SO4/EtOH development solution. THF and Et2O were dried over sodium/benzophenone and distilled. CH2Cl2 was dried by molecular sieves (4 Å, 1.6 mm). Other solvents and reagents were commercially available and used without further purifications. Fluorescence polarization experiments were performed on a PolarStar instrument (BMG, Offenburg; Germany). Evaluation of 20-34 as inhibitors of galectins was performed by use of fluorescence polarization as described in the literature (Sorme et al., 2003a, 2004). Galectin concentrations and fluorescent probe choice and concentrations were as described in Cumpstey et al. 2005a, except for galectin-3 for which the probe tdga-probe described in Salomonsson et al. 2010 was used at 20 nM together with galectin-3 at 200 nM concentrations. Each inhibitor was tested in duplicate at several concentrations between 4 and 0.25 μM. All fluorescence polarization experiments were conducted at 20° C., except galectin-7 for which experiments were conducted at 0° C.

[2] = target: T1, galectin-4 (C-terminal domain) (Homo sapiens, UniProt P56470); assay: as above; type: binding; settings: 20° C., read-out: Calculated Kd Galectin 4 (C-terminal domain)
T1 sequence (P56470 194-323 limits assumed): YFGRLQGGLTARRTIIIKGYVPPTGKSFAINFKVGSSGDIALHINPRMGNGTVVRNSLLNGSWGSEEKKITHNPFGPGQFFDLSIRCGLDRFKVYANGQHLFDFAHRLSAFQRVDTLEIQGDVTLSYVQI
Excerpt: as §1

[3] = target: galectin-1 (Homo sapiens, UniProt P09382); assay: as above; type: binding; settings: 20° C., read-out: Calculated Kd Galectin 1
Excerpt: as §1

[4] = target: T2, galectin-8 (N-terminal domain) (Homo sapiens, UniProt O00214); assay: as above; type: binding; settings: 20° C., read-out: Calculated Kd Galectin 8 (N-terminal domain)
T2 sequence (O00214 19-152 limits assumed): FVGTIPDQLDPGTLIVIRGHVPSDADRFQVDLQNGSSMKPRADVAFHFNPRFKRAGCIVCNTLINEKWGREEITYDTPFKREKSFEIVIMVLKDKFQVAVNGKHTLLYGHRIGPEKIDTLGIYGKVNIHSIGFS
Excerpt: as §1

[5] = target: galectin-7 (Homo sapiens, UniProt P47929); assay: as above; type: binding; settings: 0° C., read-out: Calculated Kd Galectin 7
Excerpt: as §1

[6] = target: T3, galectin-4 (N-terminal domain) (Homo sapiens, UniProt P56470); assay: as above; type: binding; settings: fluorescence polarization, 20° C.; read-out: Calculated Kd Galectin 4 (N-terminal domain)
T3 sequence (P56470 19-150 limits assumed): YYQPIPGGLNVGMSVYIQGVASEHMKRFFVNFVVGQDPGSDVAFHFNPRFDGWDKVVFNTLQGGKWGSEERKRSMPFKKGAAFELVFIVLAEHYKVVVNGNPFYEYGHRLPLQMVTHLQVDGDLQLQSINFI
Excerpt: as §1

[7] = target: galectin-9 (C-terminal domain) (Homo sapiens, UniProt O00182); assay: as above; type: binding; settings: 20° C., read-out: Calculated Kd Galectin 9 (C-terminal domain)
Excerpt: as §1

[8] = target: galectin-3 (Homo sapiens, UniProt P17931); assay: as above; type: binding; settings: 20° C., tdga-probe 20 nM, galectin-3 200 nM, read-out: Calculated Kd Galectin 3
Excerpt: as §1

[9] = system: galectins; settings: all galectins; cited from earlier work

galectin-3, sequence (P17931 whole entry, species assumed): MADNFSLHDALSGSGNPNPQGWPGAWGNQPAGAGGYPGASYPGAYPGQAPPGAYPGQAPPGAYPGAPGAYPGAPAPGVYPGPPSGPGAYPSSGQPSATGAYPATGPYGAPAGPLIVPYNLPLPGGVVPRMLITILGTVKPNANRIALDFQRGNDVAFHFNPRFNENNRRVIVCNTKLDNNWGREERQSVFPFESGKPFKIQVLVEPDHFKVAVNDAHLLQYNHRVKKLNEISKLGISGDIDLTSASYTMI
galectin-9 (C-terminal domain), sequence (O00182 227-355 limits assumed, species assumed): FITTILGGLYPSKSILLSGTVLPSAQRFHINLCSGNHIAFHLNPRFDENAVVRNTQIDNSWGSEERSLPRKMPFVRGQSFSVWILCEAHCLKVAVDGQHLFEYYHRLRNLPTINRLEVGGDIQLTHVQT
galectin-7, sequence (P47929 whole entry, species assumed): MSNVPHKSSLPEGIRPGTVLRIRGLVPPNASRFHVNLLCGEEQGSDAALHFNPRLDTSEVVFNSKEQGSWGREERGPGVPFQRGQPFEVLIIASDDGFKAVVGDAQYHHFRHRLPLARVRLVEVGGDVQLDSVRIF
galectin-9 (N-terminal domain), sequence (O00182 17-148 limits assumed, species assumed): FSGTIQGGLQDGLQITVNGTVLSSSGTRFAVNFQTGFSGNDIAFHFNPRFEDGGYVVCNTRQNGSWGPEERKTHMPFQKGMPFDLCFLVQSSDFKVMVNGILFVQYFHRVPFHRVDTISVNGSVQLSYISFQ
galectin-1, sequence (P09382 whole entry, species assumed): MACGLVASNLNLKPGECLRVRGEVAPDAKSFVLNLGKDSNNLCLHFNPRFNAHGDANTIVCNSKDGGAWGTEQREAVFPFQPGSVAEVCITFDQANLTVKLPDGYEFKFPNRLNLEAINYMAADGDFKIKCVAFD

- Kd [1]: 13 µM
- Kd [2]: > 500 µM
- Kd [3]: 9.9 µM
- Kd [4]: 85 µM
- Kd [5]: 37 µM
- Kd [6]: 130 µM
- Kd [7]: ~4 µM
- Kd [8]: 0.89 µM
Compound: COc1ccc2cc(CO[C@H]3[C@@H](O)[C@@H](CO)O[C@@H](S[C@@H]4O[C@H](CO)[C@H](O)[C@H](OCc5cc6ccc(OC)cc6oc5=O)[C@H]4O)[C@@H]3O)c(=O)oc2c1 [Compound 22, bis-{3-O-[(7-methoxy-2H-1-benzopyran-2-on-3-yl)-methyl]-β-D-galactopyranosyl}sulfane]

Compound: O=C[C@H](O)[C@@H](O)[C@@H](O)[C@H](O)CO [D-galactose]
- affinity compared with lactose [9]: 50-100 times lower

Compound: OC[C@H]1O[C@@H](O[C@H]2[C@H](O)[C@@H](O)C(O)O[C@@H]2CO)[C@H](O)[C@@H](O)[C@H]1O (stereo partly shown) [lactose]
- Kd [9]: 500 to 1000 µM
